Patent publication US20260284049A1 (BRISTOL-MYERS SQUIBB COMPANY, priority 2023, published 2026)
Like-named read-outs stand apart in the source and are kept apart here.

Columns and labels:
[1] = system: VTE prevention in orthopedic surgery; details: cited from earlier work; for VTE prevention in orthopedic surgery vs enoxaparin 40 mg once daily: historical Phase 3 studies; for bleeding: Phase 2 orthopedic surgery studies and in combination with antiplatelets after an ACS
[2] = system: activated partial thromboplastin time (aPTT); assay: AXIOMATIC-TKR: aPTT and ratio to baseline; assay type: in vivo, human
Procedure: In some embodiments, aPTT is measured as follows: Plasma samples are incubated with Actin FS aPTT assay reagent containing a standard amount of phospholipid and contact activator (ellagic acid) which activates the intrinsic coagulation pathway. After incubating for 3 minutes, calcium chloride is added to initiate coagulation and formation of a fibrin clot is measured optically. The time to clot formation (measured in seconds) is reported as the Activated Partial Thromboplastin Time (aPTT). […]
(§1) PD analyses were performed on the PD analysis set, defined as subjects who had at least one valid blood sample drawn for PD. Descriptive statistics (N, mean, SD, median, range, CV (%) and IQ range) were used to summarize PD response at each nominal sampling time point by treatment group. Changes from baseline were summarized when applicable. PD response outside of limit of quantitation were not to be imputed and were to be noted in the summary statistics.

[3] = system: participants undergoing primary unilateral elective TKR surgery
[4] = clinical; details: human, in vivo, po, median Tmax, healthy volunteers
[5] = system: cardiac potassium (hERG/IKr) channel; assay: In vitro cardiac potassium channel current inhibition; assay type: cell-based; details: concentrations that greatly exceed unbound plasma concentrations
[6] = system: participants with ischemic stroke or TIA; details: for Hemorragic Stroke Incidence Rate (n/N %) / Subjects With Hemorragic Stroke n: up to Day 21
Excerpt: The study enrolled participants ≥40 years of age who had ischemic stroke or TIA. Ischemic stroke was defined as a neurological deficit attributable to a non-lacunar, acute brain infarction detected by neuroimaging and relevant to the clinical symptoms and National Institutes of Health Stroke Score (NIHSS) ≤7 at the time of randomization. TIA was defined as acute onset neurological deficit attributable to focal ischemia of the brain by history or examination, with complete resolution of the deficit and no brain infarction on neuroimaging and ABCD score ≥6 or presence of motor symptoms. Evidence of relevant intracranial or cervical arterial atherosclerotic plaque, ulceration or thrombus in a feeding artery documented by imaging was required regardless of whether the index event was ischemic stroke or TIA, and all participants were required to have a Modified Rankin Score ≤3 before the index event. […] Following informed consent, participants received ASA 100 mg QD and a single loading dose of clopidogrel 300 mg if not already given as standard of care. […] A second MRI was performed on Day 90±6 days. All participants were required to remain on study treatment until the Day 90 MRI was performed up to Day 96.
From 27 Jan. […] The 200 mg BID arm was opened on 5 Jun.

[7] = clinical; details: human, in vivo, po
Excerpt: (§2) (AXIOMATIC-TKR Phase II).
(§3) Assessment of the dose-response for the occurrence of any bleeding was a secondary objective.

[8] = system: thrombin generation; assay: AXIOMATIC-TKR: Thrombin Generation Assay (TGA): peak height, ETP, lag time; assay type: in vivo, human; details: Milvexian 25 mg QD; Day 10-14
Excerpt: as §2
As used herein, “Thrombin Generation Assay (TGA)” is a global coagulation assay that evaluates the thrombogenic capacity of a plasma sample and has been proposed that it may better reflect prothrombotic or hemorrhagic states than conventional clotting assays. In the traditional TGA, coagulation of citrated plasma is initiated through the extrinsic pathway by adding tissue factor, phospholipids, and calcium. For this study, in the in-vitro thrombin generation assay (TGA) using human platelet-rich plasma, and a kaolin slurry was used instead to initiate coagulation through the contact activation pathway. Thrombin generation is continuously monitored through the product released by cleavage of a thrombin-specific fluorogenic substrate.
as §3, §1

[9] = system: QT/QTc interval (cardiac repolarization); assay type: in vivo, human
Excerpt: The upper bound of two-sided 90% CI for the largest difference in mean change from baseline in QTc intervals (ΔQTc; […].
A total of 66 participants were enrolled in the study and randomly assigned to 1 of 4 possible treatment sequences. […].
Forty-five (68.2%) participants completed all 4 periods with study intervention as planned. […]

[10] = target: Factor XI Activity (Homo sapiens, UniProt P03951); assay: AXIOMATIC-TKR: FXI clotting activity (FXI:c); assay type: in vivo; parameters: dose or concentration left out as unconfirmed
Sequence of Factor XI Activity (P03951 19-625): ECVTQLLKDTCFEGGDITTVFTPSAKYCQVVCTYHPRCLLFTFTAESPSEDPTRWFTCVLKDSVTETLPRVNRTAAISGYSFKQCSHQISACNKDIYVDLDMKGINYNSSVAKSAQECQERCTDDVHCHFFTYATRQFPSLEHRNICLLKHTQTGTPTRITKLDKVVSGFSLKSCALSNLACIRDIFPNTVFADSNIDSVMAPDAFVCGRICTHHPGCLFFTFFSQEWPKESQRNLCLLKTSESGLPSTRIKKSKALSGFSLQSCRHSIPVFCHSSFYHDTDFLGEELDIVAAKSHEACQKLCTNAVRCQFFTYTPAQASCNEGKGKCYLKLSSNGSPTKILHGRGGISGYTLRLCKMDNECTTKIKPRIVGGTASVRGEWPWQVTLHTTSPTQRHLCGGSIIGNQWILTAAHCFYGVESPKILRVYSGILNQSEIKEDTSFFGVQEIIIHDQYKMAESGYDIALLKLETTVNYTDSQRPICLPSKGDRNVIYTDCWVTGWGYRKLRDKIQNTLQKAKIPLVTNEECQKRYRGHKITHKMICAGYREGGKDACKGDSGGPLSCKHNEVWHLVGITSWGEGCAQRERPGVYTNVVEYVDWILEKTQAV
Procedure: As used herein, “Factor XI Clotting Activity” is determined utilizing an aPTT-based 1-stage clotting time assay. Serial dilutions of normal pooled plasma are mixed with FXI-depleted plasma and the clotting times are measured according to standard aPTT protocol, to establish a reference range. Subject test plasma is treated in the same way and compared with the reference plasma.
In some embodiments, the Factor XI Clotting Activity is measured as follows: Factor XI (FXI) activity is measured using a modification of the activated partial thromboplastin time (aPTT) using Actin FS (Siemens Healthcare) on the Siemens BCS® XP analyzer. […] The reference standard, at approximately 100%, is diluted by the BCS® XP analyzer in saline to generate pre-selected calibration levels of FXI. The calibration curve is plotted with FXI activity in percent (%) on the x-axis and clotting time in seconds on the y-axis. A log/lin regression curve fit is used. […] APTT reagent (Actin FS) is added and the mixture is incubated. Following incubation, calcium chloride is added to the mixture and the time to clot formation (measured optically) is compared to the time on the calibration curve. Samples are tested at the base dilution (1:10) prepared by the BCS® XP in saline.
as §3, §1

[11] = 40 mg QD subcutaneous, Day 1 2 h
[12] = 40 mg QD subcutaneous, Day 1 4 h
[13] = 40 mg QD subcutaneous, Day 2 Predose
[14] = 40 mg QD subcutaneous, Day 4 4 h
[15] = 40 mg QD subcutaneous, Day 4 Predose
[16] = 40 mg QD subcutaneous, Day 10-14

In the case of COc1ccc(-n2nc(C(N)=O)c3c2C(=O)N(c2ccc(N4CCCCC4=O)cc2)CC3)cc1 [apixaban], the “VTE prevention in orthopedic surgery vs enoxaparin 40 mg once daily” value ([1]; 2.5 mg twice daily) is given as “superior to enoxaparin” and the bleeding [1] is given as “dose-related bleeding”.

In the case of C[C@@H]1CCC[C@H](n2cnc(-c3cc(Cl)ccc3-n3cc(Cl)nn3)cc2=O)c2cc(ccn2)-c2c(cnn2C(F)F)NC1=O [milvexian, (5R,9S)-9-(4-(5-chloro-2-(4-chloro-1H-1,2,3-triazol-1-yl)phenyl)-6-oxopyrimidin-1(6H)-yl)-2^1-(difluoromethyl)-5-methyl-2^1H-3-aza-1(4,2)-pyridina-2(5,4)-pyrazolacyclonaphan-4-one], the “aPTT Measured Value, Med” value ([2]; 50 mg QD, Day 4 4 h) is reported as 52 s, the “dose-response relationship for bleeding events” value ([3]; AXIOMATIC-TKR or AXIOMATIC-SSP) is reported as “No dose-response relationship was observed” and the “fatal bleeding and symptomatic intracranial hemorrhage” value ([3]; Phase 2 studies) is reported as “No fatal bleeding and no increases in symptomatic intracranial hemorrhage”. For the same molecule, the “Total VTE, participants n” value ([3]; milvexian BID dose regimens (N=518)) was 63, the Tmax ([4]; once daily) was 2 to 3 h and the Tmax ([4]; twice daily) was roughly 3 h. For the same molecule, the “inhibition of cardiac potassium (hERG/IKr) channel currents” value [5] was “weak to moderate potency”, the “Hemorragic Stroke Incidence Rate (n/N %)” value ([6]; 25 mg BID) was 0 (0) % and the “Subjects With Hemorragic Stroke n” value ([6]; 25 mg BID) was 0 (0). The “New Ischemic Stroke, MI and All Cause Death: Subjects With Event n” value ([6]; 25 mg BID, up to Day 90) was 15, the “Hemorragic Stroke Incidence Rate (n/N %)” value ([6]; 25 mg QD) was 0 (0) % and the “Subjects With Hemorragic Stroke n” value ([6]; 25 mg QD) was 0 (0). For the same molecule, the “Ischemic Stroke (n/N %)” value ([6]; 25 mg QD, up to Day 90) was 4.6%, the “New Ischemic Stroke, MI and All Cause Death: Subjects With Event (n/N %)” value (“New Ischemic Stroke … (n/N %)” below) ([6]; 25 mg QD, up to Day 90) was 5.2% and the “HR for clinical ischemic strokes vs placebo” value ([6]; 25 mg twice daily, 95% CI 0.36-1.30) was 0.69. For the same molecule, the “Hemorragic Stroke Incidence Rate (n/N %)” value ([6]; 50 mg BID) was 0 (0) %, the “Subjects With Hemorragic Stroke n” value ([6]; 50 mg BID) was 0 (0) and the “Hemorragic Stroke Incidence Rate (n/N %)” value ([6]; 100 mg BID) was 0 (0) %. The “Subjects With Hemorragic Stroke n” value ([6]; 100 mg BID) was 0 (0), the “New Ischemic Stroke … (n/N %)” value ([6]; 100 mg BID, up to Day 90) was 5.2% and the “rate of early treatment discontinuation” value ([6]; 200 mg BID, primarily due to AEs) was 31.6%. The “Hemorragic Stroke Incidence Rate (n/N %)” value ([6]; 200 mg BID) was 0 (0) %, the “Subjects With Hemorragic Stroke n” value ([6]; 200 mg BID) was 0 (0) and the “New Ischemic Stroke … (n/N %)” value ([6]; 200 mg BID, up to Day 90) was 9.4%. For the same molecule, the Tmax at 96 h ([7]; Day 4, 25 mg and 100 mg twice daily) was roughly 2 h, the Tmax at 96 h ([7]; Day 4, 50 mg and 200 mg once daily) was roughly 4 h and the “ETP Lag Time, Measured Value, Med” value [8] was 10.33 min. For the same molecule, the “changes over time in HR, RR interval, PR interval, or QRS width” value ([9]; 100 mg and 200 mg twice daily) was “No consistent or clinically relevant changes”, the “treatment-emergent QTcF or QTcB >480 ms or changes from baseline >60 ms” value ([9]; 100 mg and 200 mg twice daily for 4 days) was “No treatment-emergent actual values of QTcF or QTcB >480 ms or changes from baseline >60 ms were observed” and the “upper bound of two-sided 90% CI for the largest ΔΔQTc (QTcF)” value ([9]; supratherapeutic 200 mg twice daily as solution) was “less than 10 milliseconds”. The “upper bound of two-sided 90% CI for the largest ΔΔQTc (QTcF)” value ([9]; therapeutic 100 mg twice daily as capsule) was “less than 10 milliseconds” and the QT/QTc interval prolongation ([9]; therapeutic (100 mg) and supratherapeutic (200 mg) doses, ICH E14) was “does not show evidence of QT/QTc interval prolongation of clinical or regulatory concern”.

In the case of COc1c(N2C[C@@H]3CCCN[C@@H]3C2)c(F)cc2c(=O)c(C(=O)O)cn(C3CC3)c12 [moxifloxacin, reference compound], the “participants with treatment-emergent change from baseline of QTcB >60 ms” value ([9]; single dose of 400 mg) is reported as 1.7%.

For O=C(NC[C@H]1CN(c2ccc(N3CCOCC3=O)cc2)C(=O)O1)c1ccc(Cl)s1 [rivaroxaban], the “VTE prevention in orthopedic surgery vs enoxaparin 40 mg once daily” value ([1]; 10 mg once daily) is listed as “superior to enoxaparin” and the bleeding [1] is listed as “dose-related bleeding”.

In the case of enoxaparin, the “aPTT Measured Value, Mean” value [2, 11] is reported as 37.03 s, the “aPTT Measured Value, Med” value [2, 11] is reported as 27.5 s and the “aPTT Measured Value, Mean” value [2, 12] is reported as 29.14 s. For the same molecule, the “aPTT Measured Value, Med” value [2, 12] was 27.75 s, the “aPTT Measured Value, Mean” value [2, 13] was 28.11 s and the “aPTT Measured Value, Med” value [2, 13] was 27.4 s. For the same molecule, the “aPTT Measured Value, Mean” value [2, 14] was 27.37 s, the “aPTT Measured Value, Med” value [2, 14] was 26.1 s and the “aPTT Measured Value, Mean” value [2, 15] was 26.03 s. For the same molecule, the “aPTT Measured Value, Med” value [2, 15] was 25.8 s, the “aPTT Measured Value, Mean” value [2, 16] was 27.8 s and the “aPTT Measured Value, Med” value [2, 16] was 25.9 s. For the same molecule, the “Total VTE, participants n” value ([3]; 40 mg QD subcutaneous (N=252)) was 54, the “total venous thromboembolism (VTE) rate” value ([3]; 40 mg once daily subcutaneous) was 21.4% and the “Factor XI Activity Measured Value, Mean” value ([10]; Day 1 4 h) was 1.06 fraction of 1. For the same molecule, the “Factor XI Activity Measured Value, Med” value ([10]; Day 1 4 h) was 1.07 fraction of 1, the “Factor XI Activity Measured Value, Mean” value ([10]; Day 10-14) was 1.36 fraction of 1 and the “Factor XI Activity Measured Value, Med” value ([10]; Day 10-14) was 1.39 fraction of 1.
